Data from patent US20240092779A1, “USP1 INHIBITORS AND USES THEREOF” (Zentaur Therapeutics USA Inc., priority 2022, published 2024).

How the values were obtained:
[1] = Liver microsomal stability (HLM); format: in vitro ADME; details: human, liver microsomes, human liver microsomes 0.5 mg/mL, 1 μM compound, NADPH
Procedure: Liver Microsomal Stability
Certain Compounds of the Disclosure were assessed for ADME metabolic stability in human liver microsomes (HLM).
Samples were prepared by adding 222.5 μL of a master solution (100 mM phosphate buffer and 0.5 mg/mL liver microsomes (HLM)) and 25 μL of a 10 mM NADPH solution to incubation plates, which were then warmed for 10 min. Each compound was separately dissolved in DMSO to prepare 10 mM stock solutions, which were then diluted to 100 μM with acetonitrile. A reaction was started by adding 2.5 μL of the […] solution of each compound to separate incubation plates such that the final concentration of for each compound in each plate was 1 μM. Aliquots of 30 μL were taken from the reaction solution at 0.5, 5, 15, 30 and 60 minutes. The reaction was stopped by the addition of 5 volumes of cold acetonitrile with IS (100 nM alprazolam, 200 nM caffeine and 100 nM tolbutamide). Aliquot of 100 μL of the supernatant was diluted by 100 μL ultra-pure water, and the mixture was used for LC/MS/MS analysis. Peak areas were determined from extracted ion chromatograms. […]. The percentage of remaining parent was calculated from peak area of test compound or PC. The slope value, k, is determined by linear regression of the natural logarithm of percent parent remaining vs. incubation time curve. All calculations are carried out using Microsoft Excel.
The in vitro half-life (in vitro t1/2) is determined from the slope value:
Conversion of the in vitro t1/2 (in min) into the in vitro intrinsic clearance (in vitro CLint, (HLM Clint (μL/min/mg proteins))) is done using the following equation: […]
A: HLM Clint <10 μL/min/mg; B: 10 μL/min/mg≤HLM Clint <50 μL/min/mg; C: HLM Clint ≥50 μL/min/mg.

[2] = test system: HCC1806 Ub-PCNA (USP1); test: USP1 Western Blot Protocol (HCC1806 Ub-PCNA); format: cell-based; details: HCC1806 cells, 4 hours
Excerpt: USP1 Western Blot Protocol (HCC1806 Ub-PCNA)
USP1 is a deubiquitinase that catalyze the hydrolysis of iso-peptide bond between ubiquitin and the substrate proteins. Inhibition of USP1 activity results in accumulation of mono-ubiquitinated substrate such as Ub-PCNA. A cell assay was set up to determine the cellular potency of USP1 compounds by monitoring the accumulation of Ub-PCNA. The signal intensity was detected by a specific Ub-PCNA antibody through Western-blot analysis.
The assay was initiated by seeding HCC1806 cells (ATCC, CRL-2335) into 6-well plates (Corning, 3516), with a seeding density of 3×10^5 cells per well and 2 mL RPMI 1640 culture medium (Gibco, 11875119). The plates were incubated overnight at 37° C. and 5% CO2. Compounds, solubilized in DMSO (Solarbio, D8371) as 1 mM stock solution, were diluted in 4-fold steps for 5-cencentration point dose response plus a no-compound DMSO control. Diluted compounds (2 μL) were transferred into assay wells (with a final DMSO concentration of −0.1%) and the resulted assay plates incubated at 37° C. and 5% CO2 for 4 hours. After aspiration of culture medium, 100 μL of 4° C. RIPA lysis buffer (Boston BioProducts, BP-115D) supplemented with vendor recommended concentrations of protease (Roche, 4693116001) and phosphatase (Roche, 4906837001) inhibitor, was added to each well and incubated for 10 minutes on the ice. Cells were scrapped loose from the bottom of well with a scraper (Corning, 3008), transferred into a 600 μL EP tube, sonicated using Ultrasound (Qsonica, Q800R3, with 30% energy, 5-second pulse on/off cycles at 4° C., for total 2 minutes), centrifuged 13,000 rpm for 15 minutes at 4° C., and then the supernatant transferred to a new 600 μL EP tube. The total protein concentration was determined using BCA kit following vendor recommended protocol (Solarbio, PC0020-500). Loading samples were prepared by diluting the total protein concentration to 1.5 μg/μL with 5 X NuPAGE SDS loading buffer (Beyotime, P0015L) and RIPA lysis buffer, and boiling at 100° C. for 5 minutes.
15 μg protein from each sample was loaded onto NuPAGE® Novex 4-12% Bis-Tris Midi Gel, 26 W (Invitrogen, WG1403BOX) and electrophoresis was run at 80 V for 30 minutes and 120 V till the end using 1x NuPAGE® MOPS SDS Running Buffer (Novex, NP0001). The gel was then transferred to nitrocellulose membrane using the dry transfer system (iBlot 2 Transfer Stacks, nitrocellulose, D323001) with a program consisting of 20 V for 1 minute, 23 V for 4 minutes and 25 V for 2 minutes. After the membrane was blocked with 5% BSA (Solarbio, A8020) in 1X TBST (CST, 9997S) for 1 hour at room temperature, specific antibodies (Ubiquityl-PCNA antibody (CST, 13439) at 1:500 dilution, PCNA antibody (Santa Cruz, sc-56) at 1:1000 dilution, and GAPDH (CST, 5174) at 1:2000 dilution in 1 X TBST containing 1% BSA) were added and incubated at room temperature for 1.5 hours. After washing the Nitrocellulose membranes with 1 X TBST for 3 times, 10 minutes each time at room temperature, fluorescently labeled secondary antibodies (anti-rabbit IgG, Licor, 926-32211; anti-mouse IgG, LI-COR, 926-68070) at 1:5000 dilution in 1 X TBST containing 1% BSA were added and incubated for 1 hour at room temperature in the dark. The membranes were then rinsed with 1 X TBST and immersed in the RO water. Imaging of band intensity was acquired with Li—COR imaging system (Li—COR, Odyssey clx ES).
Percentage of USP1 inhibition (% Vehicle) was calculated by using following equation examining Ub-PCNA upregulation:
And IC50 was calculated using four-parameter logistic fitting program • Y=Bottom+(Top-Bottom)/(1+10 {circumflex over (()}(LogIC50−X)*Hill Slope)) • X=Log of dose or concentration
(§1) Certain compounds were tested in the assays.

[3] = test system: MDA-MB-436 cells; test: CTG Protocol (MDA-MB-436 GI50), antiproliferative activity; format: cell-based, human; details: MDA-MB-436 cells (BRCA1 mutation), 7-day incubation, CellTiter-Glo
Procedure: CTG Protocol (MDA-MB-436 GI50)
Antiproliferative activity of USP1 inhibitors was determined using breast cancer cell line MDA-MB-436 that harbors BRCA1 mutation. MDA-MB-436 cells (ATCC, HTB-130) was seeded with a seeding density of 1000 cells per well and 95 μL DMEM medium (Gibco, 10566016) into 96-well cell plates (Corning, 3610), and incubated overnight at 37° C. and 5% CO2. Compounds were solubilized in DMSO (Solarbio, D8371) as 10 mM stock solution, and then series diluted (3 folds) with DMSO for 9-point dose-response testing. The resulted series dilutions were then jump-diluted 50-fold by cell culture medium to afford the 20×stock solutions (containing 2% DMSO). Treatment was initiated by adding 5 μL of 20×stock solution to the assay plate and incubated at 37° C. and 5% CO2. At the end of 7-day incubation, cell assay plates were removed from incubation and equilibrated to room temperature (20 min). Then 100 μL of CellTiter-Glo (Promega, G9243) reagent, prepared per manufacturer's protocol, was added to each well, and the resulted plates were centrifuged 1,000 rpm for 1 minute, incubated at room temperature in the dark for 20 minutes, sealed with Perkin Elmer sticky film, and the luminescence signal read by Envision (Perkin Elmer).
Data analysis • a) % Inhibition was calculated using following equation: […]
X: compound concentration; Y: % Inhibition
as §1

Work on `[2H]C([2H])([2H])Oc1ncnc(C2CC2)c1-c1ncc2ccc(=O)n(C([2H])([2H])c3ccc(-c4nc(C(F)(F)F)cn4C([2H])([2H])[2H])cc3)c2n1` [Compound I-57] yielded a microsomal CLint at 1 μM [1] of 10 to 50 µL/min/mg.

For `COc1ncnc(C2CC2)c1-c1ncc2ncc(=O)n(Cc3ccc(-c4nc(C(F)(F)F)cn4C)cc3)c2n1` [Compound I-17, 2-(4-cyclopropyl-6-methoxypyrimidin-5-yl)-8-({4-[1-methyl-4-(trifluoromethyl)imidazol-2-yl]phenyl}methyl) pteridin-7-one], the microsomal CLint at 1 μM [1] was 10 to 50 µL/min/mg.

Work on `COc1ncnc(C2CC2)c1-c1cc2c(ccc(=O)n2Cc2ccc(-c3nc(C(F)(F)F)cn3C)cc2)cn1` [Compound I-11, 7-(4-Cyclopropyl-6-Methoxypyrimidin-5-Yl)-1-({4-[1-Methyl-4-(Trifluoromethyl)Imidazol-2-Yl]Phenyl}Methyl)-1,6-Naphthyridin-2-One] yielded a microsomal CLint at 1 μM [1] of 10 to 50 µL/min/mg.

In the case of `COc1ncnc(C2CC2)c1-c1ncc2ccc(=O)n(Cc3ccc(-c4nc(C(F)(F)F)cn4C4COC4)cc3)c2n1` [Compound I-59], the microsomal CLint at 1 μM [1] is reported as 10 to 50 µL/min/mg.

In the case of `COc1ncnc(C2CC2)c1-c1ncc2cc(-c3nnc(C)n3C)c(=O)n(Cc3ccc(-c4nc(C(F)(F)F)cn4C4CC4)cc3)c2n1` [Compound I-149, 8-({4-[1-Cyclopropyl-4-(Trifluoromethyl)Imidazol-2-Yl]Phenyl}Methyl)-2-(4-Cyclopropyl-6-Methoxypyrimidin-5-Yl)-6-(4,5-Dimethyl-1,2,4-Triazol-3-Yl)Pyrido[2,3-d]Pyrimidin-7-One], the IC50 ([2]; Homo sapiens) is reported as 10 to 100 nM and the GI50 ([3]; Homo sapiens, 168 h) is reported as 10 to 100 nM.

For `COc1ncnc(C2CC2)c1-c1ncc2ccc(=O)n(Cc3ccc(-c4nc(C(F)(F)F)cn4C)cc3)c2n1` [Compound I-1, 2-(4-Cyclopropyl-6-Methoxypyrimidin-5-Yl)-8-({4-[1-Methyl-4-(Trifluoromethyl)Imidazol-2-Yl]Phenyl}Methyl)Pyrido[2,3-d]Pyrimidin-7-One], the microsomal CLint at 1 μM [1] was 10 to 50 µL/min/mg.

For `COc1ncnc(C2CC2)c1-c1ncc2ccc(=O)n(Cc3ccc(-c4nc(C(F)(F)F)cn4C)cc3F)c2n1` [Compound 71, 2-(4-Cyclopropyl-6-Methoxypyrimidin-5-Yl)-8-({2-Fluoro-4-[1-Methyl-4-(Trifluoromethyl)Imidazol-2-Yl]Phenyl}Methyl)Pyrido[2,3-d]Pyrimidin-7-One], the IC50 ([2]; Homo sapiens) was 10 to 100 nM and the GI50 ([3]; Homo sapiens, 168 h) was 10 to 100 nM.

Work on `COc1ncnc(C2CC2)c1-c1ncc2ccc(=O)n(C(C)c3ccc(-c4nc(C(F)(F)F)cn4C)cc3)c2n1` (centres unmarked) [Compound I-43, 2-(4-Cyclopropyl-6-Methoxypyrimidin-5-Yl)-8-(1-{4-[1-Methyl-4-(Trifluoromethyl)Imidazol-2-Yl]Phenyl}Ethyl)Pyrido[2,3-d]Pyrimidin-7-One] yielded an IC50 ([2]; Homo sapiens) of 10 to 100 nM and a GI50 ([3]; Homo sapiens, 168 h) of 10 to 100 nM.

Compound `Cc1cnn(C(C)C)c1-c1ncc2ccc(=O)n(Cc3ccc(-c4nc(C(F)(F)F)cn4C)cc3)c2n1` [Compound I-45, 2-(2-isopropyl-4-methylpyrazol-3-yl)-8-({4-[1-methyl-4-(trifluoromethyl)imidazol-2-yl]phenyl}methyl)pyrido[2,3-d]pyrimidin-7-one] has an IC50 ([2]; Homo sapiens) of 10 to 100 nM and a GI50 ([3]; Homo sapiens, 168 h) of 10 to 100 nM.

In the case of `COc1ncnc(C2CC2)c1-c1ncc2nc(-c3cn(C)cn3)c(=O)n(Cc3ccc(-c4nc(C(F)(F)F)cn4C4CC4)cc3)c2n1` [Compound I-160, 8-({4-[1-Cyclopropyl-4-(Trifluoromethyl)Imidazol-2-Yl]Phenyl}Methyl)-2-(4-Cyclopropyl-6-Methoxypyrimidin-5-Yl)-6-(1-Methylimidazol-4-Yl)Pteridin-7-One], the IC50 ([2]; Homo sapiens) is reported as 10 to 100 nM and the GI50 ([3]; Homo sapiens, 168 h) is reported as 10 to 100 nM.

Work on `COc1ncnc(C2CC2)c1-c1ncc2cc(C)c(=O)n(Cc3ccc(-c4nc(C(F)(F)F)cn4C)cc3)c2n1` [Compound 78, 2-(4-cyclopropyl-6-methoxypyrimidin-5-yl)-6-methyl-8-({4-[1-methyl-4-(trifluoromethyl)imidazo]-2-yl]phenylmethyl)pyrido[2,3-d]pyrimidin-7-one] yielded an IC50 [2] of 10 to 100 nM and a GI50 [3] of 10 to 100 nM.
